According to patent publication US20230187019A1, “METHOD FOR DETERMINING A DRUG COMBINATION VIA A BLOCKING MODEL OF A MULTI-SITE-TARGETED PROTEIN AND APPLICATIONS THEREOF” (National Tsing Hua University, priority 2021, published 2023):
“Also recorded” adds a separate entry of the source. Like-named read-outs stand apart in the source and are kept apart here.

B1: autophagy related 4B cysteine peptidase (ATG4B) (protein)
chain: MDAATLTYDTLRFAEFEDFPETSEPVWILGRKYSIFTEKDEILSDVASRLWFTYRKNFPAIGGTGPTSDTGWGCMLRCGQMIFAQALVCRHLGRDWRWTQRKRQPDSYFSVLNAFIDRKDSYYSIHQIAQMGVGEGKSIGQWYGPNTVAQVLKKLAVFDTWSSLAVHIAMDNTVVMEEIRRLCRTSVPCAGATAFPADSDRHCNGFPAGAEVTNRPSPWRPLVLLIPLRLGLTDINEAYVETLKHCFMMPQSLGVIGGKPNSAHYFIGYVGEELIYLDPHTTQPAVEPTDGCFIPDESFHCQHPPCRMSIAELDPSIAVGFFCKTEDDFNDWCQQVKKLSLLGGALPMFELVELQPSHLACPDVLNLSLDSSDVERLERFFDSEDEDFEILSL

How the values were obtained:
HCT116 = assay: Cell viability assay on HCT116; format: cell-based, human; details: for HCT116 Cell Viability: remaining viability; for viability at 20 µM: Homo sapiens
AsPC-1 = assay: Cell viability assay (MTT) on AsPC-1; details: for AsPC-1 Cell Viability: remaining viability, 20 μM drug, normalized by blank control, three repeats; for viability at 20 µM: Homo sapiens, ASPC1, read-out: AsPC-1 Cell Viability, remaining viability, 20 μM drug, normalized by blank control, three repeats; for inhibition of cell viability, significance: 20 μM, AsPC-1, p-value <0.05
shCtrl/HCT116 = assay: Cell viability assay on shCtrl/HCT116 (control strain); format: cell-based, human; details: for viability at 20 µM: Homo sapiens; for shCtrl/HCT116 Cell Viability: remaining viability
shATG4B/HCT116 = assay: Cell viability assay on shATG4B/HCT116 (ATG4B silencing strain); format: cell-based, human; details: for viability at 20 µM: Homo sapiens; for difference of cell viability inhibition between shATG4B/HCT116 (S strain) and shCtrl/HCT116 (C strain): Student's t-test, p-value <0.05; for shATG4B/HCT116 Cell Viability: remaining viability
ATG4B = ATG4B (Homo sapiens, UniProt Q9Y4P1); assay: In vitro cleavage assay of ATG4B catalytic activity (western blot of tagged LC3B); format: biochemical; details: read-out: inhibition on ATG4B's catalytic activity
AK4.4 = assay: Cell viability assay (MTT) on AK4.4; details: Mus musculus, read-out: IC50, Pn
[1] = target: full-length fusion protein composed of C-Myc, pro-LC3B, and S-tag, Q9GZQ8
[2] = 20 μM drug, normalized by blank control, three repeats
[3] = HCT-116, remaining viability, 20 μM drug, normalized by blank control, three repeats, read-out: HCT116 Cell Viability
[4] = HCT-116, remaining viability, 20 μM drug, C strain, read-out: shCtrl/HCT116 Cell Viability
[5] = HCT-116, remaining viability, 20 μM drug, S strain, read-out: shATG4B/HCT116 Cell Viability

Molecule	HCT116 Cell Viability (HCT116; [2]) [%]	viability at 20 µM (HCT116; [3]) [%]	viability at 20 µM (shCtrl/HCT116; [4]) [%]	viability at 20 µM (shATG4B/HCT116; [5]) [%]	viability at 20 µM (AsPC-1) [%]	inhibition of cell viability, significance (AsPC-1)	further results
O=C(c1c2ccccc2cc2ccccc12)N1CCC(N2CCC[C@@H](C(=O)N3CCOCC3)C2)CC1 [CP-640186]	84.3 ± 2.0						AsPC-1 Cell Viability (AsPC-1): 87.4 ± 4.7%
Cc1ccc(C(=O)Nc2ccc(S(=O)(=O)O)c3cc(S(=O)(=O)O)cc(S(=O)(=O)O)c23)cc1NC(=O)c1cccc(NC(=O)Nc2cccc(C(=O)Nc3cc(C(=O)Nc4ccc(S(=O)(=O)O)c5cc(S(=O)(=O)O)cc(S(=O)(=O)O)c45)ccc3C)c2)c1 [Suramin]		100 ± 2.3	104 ± 4.4	98.3 ± 0.7	107 ± 6.5		
CC(C)[C@@]1(NC(=O)[C@@H]2C[C@@H]3c4cccc5[nH]cc(c45)C[C@H]3N(C)C2)O[C@@]2(O)[C@@H]3CCCN3C(=O)[C@H](Cc3ccccc3)N2C1=O [Dihydroergocristine]		64 ± 3.7			77.1 ± 1.6	statistically significant	
CC[C@@]1(O)C[C@H](O[C@H]2C[C@H](N(C)C)[C@H](O[C@H]3C[C@H](O)[C@H](O[C@H]4CCC(=O)[C@H](C)O4)[C@H](C)O3)[C@H](C)O2)c2c(cc3c(c2O)C(=O)c2c(O)cccc2C3=O)[C@H]1C(=O)OC [Aclacinomycin A]	27.9 ± 1.3					statistically significant	HCT116 Cell Viability (HCT116; 20 μM drug, normalized by blank control, three repeats, listed as aclacinomycin A): 28%; shCtrl/HCT116 Cell Viability (shCtrl/HCT116; 20 μM drug, C strain): 27.7 ± 1.2%; shCtrl/HCT116 Cell Viability (shCtrl/HCT116; 20 μM drug, C strain, listed as aclacinomycin A): 28%; difference of cell viability inhibition between shATG4B/HCT116 (S strain) and shCtrl/HCT116 (C strain) (shATG4B/HCT116): statistically significant; also recorded: significant differences; shATG4B/HCT116 Cell Viability (shATG4B/HCT116; 20 μM drug, S strain): 38.4 ± 1.3%; shATG4B/HCT116 Cell Viability (shATG4B/HCT116; 20 μM drug, S strain, listed as aclacinomycin A): 38%; AsPC-1 Cell Viability (AsPC-1): 48.3 ± 4.6%; AsPC-1 Cell Viability (AsPC-1; listed as aclacinomycin A): 48%
COc1ccc2c(c1)C(=O)N(CCc1ccc(S(=O)(=O)NC(=O)NC3CCCCC3)cc1)C(=O)C2(C)C [Gliquidone]		87 ± 1.6	88.4 ± 7.3	89.6 ± 0.6	92.4 ± 5.3		
CO[C@H]1C[C@@H]2CC[C@@H](C)[C@@](O)(O2)C(=O)C(=O)N2CCCC[C@H]2C(=O)O[C@H]([C@H](C)C[C@@H]2CC[C@@H](OC(=O)C(C)(CO)CO)[C@H](OC)C2)CC(=O)[C@H](C)/C=C(\C)[C@@H](O)[C@@H](OC)C(=O)[C@H](C)C[C@H](C)/C=C/C=C/C=C/1C [Temsirolimus]		52.1 ± 0.9	50	60	69 ± 4.2	statistically significant	shCtrl/HCT116 Cell Viability (shCtrl/HCT116; 20 μM drug, C strain): 49.5 ± 3.5%; difference of cell viability inhibition between shATG4B/HCT116 (S strain) and shCtrl/HCT116 (C strain) (shATG4B/HCT116; listed as emsirolimus): significant differences; difference of cell viability inhibition between shATG4B/HCT116 (S strain) and shCtrl/HCT116 (C strain) (shATG4B/HCT116; listed as temsirolimus): statistically significant; shATG4B/HCT116 Cell Viability (shATG4B/HCT116; 20 μM drug, S strain): 60.5 ± 1.9%
Cc1cn(-c2cc(NC(=O)c3ccc(C)c(Nc4nccc(-c5cccnc5)n4)c3)cc(C(F)(F)F)c2)cn1 [Nilotinib]		61.4 ± 4.4	59.6 ± 1.7	68.2 ± 1.1	95.2 ± 3.4		
Cc1cc(-c2ccc(/N=N/c3ccc4c(S(=O)(=O)O)cc(S(=O)(=O)O)c(N)c4c3O)c(C)c2)ccc1/N=N/c1ccc2c(S(=O)(=O)O)cc(S(=O)(=O)O)c(N)c2c1O [Evans Blue]	34.8 ± 1.3	35	35	34	34	statistically significant	shCtrl/HCT116 Cell Viability (shCtrl/HCT116; 20 μM drug, C strain): 34.9 ± 0.3%; shATG4B/HCT116 Cell Viability (shATG4B/HCT116; 20 μM drug, S strain): 34.5 ± 1.7%; AsPC-1 Cell Viability (AsPC-1): 33.6 ± 1.2%
CCC(C)n1ncn(-c2ccc(N3CCN(c4ccc(OCC5COC(Cn6cncn6)(c6ccc(Cl)cc6Cl)O5)cc4)CC3)cc2)c1=O (stereo not shown) [Itraconazole]		82.6 ± 2.1	84.1 ± 1.9	91.3 ± 2.3	93.6 ± 6.3		
Cc1ccc(C(=O)Nc2ccc(CN3CCN(C)CC3)c(C(F)(F)F)c2)cc1C#Cc1cnc2cccnn12 [Ponatinib]	18.5 ± 0.6	19	21	31	47		inhibition at 5 µM (ATG4B): 30%; shCtrl/HCT116 Cell Viability (shCtrl/HCT116; 20 μM drug, C strain): 21.3 ± 0.6%; IC50 (AK4.4): 510 nM; AsPC-1 Cell Viability (AsPC-1): 47.2 ± 1.3%
Cc1nc2c([nH]1)-c1ccccc1N(C(=O)c1ccc(NC(=O)c3ccccc3-c3ccccc3)cc1)CC2 [Conivaptan]		67.8 ± 0.5	69.5 ± 2.2	84 ± 2	99.3 ± 2.8		
C#C[C@]1(O)CC[C@H]2[C@@H]3CCc4cc(O)ccc4[C@H]3CC[C@@]21C [Ethynyl Estradiol]	47.4 ± 1.8	47	49	70	80.1 ± 6.4	statistically significant	shCtrl/HCT116 Cell Viability (shCtrl/HCT116; 20 μM drug, C strain): 48.7 ± 1.4%; difference of cell viability inhibition between shATG4B/HCT116 (S strain) and shCtrl/HCT116 (C strain) (shATG4B/HCT116): statistically significant; also recorded: significant differences; shATG4B/HCT116 Cell Viability (shATG4B/HCT116; 20 μM drug, S strain): 69.5 ± 3.3%
C[C@@H]1CCO[C@H]2Cn3cc(C(=O)NCc4ccc(F)cc4F)c(=O)c(O)c3C(=O)N12 [Dolutegravir]		88 ± 4	85.5 ± 2.9	89.4 ± 2.5	106 ± 5.3		difference of cell viability inhibition between shATG4B/HCT116 (S strain) and shCtrl/HCT116 (C strain) (shATG4B/HCT116): statistically significant; also recorded: significant differences
CC(C)(C)NC(=O)[C@@H]1C[C@@H]2CCCC[C@@H]2CN1C[C@@H](O)[C@H](Cc1ccccc1)NC(=O)[C@H](CC(N)=O)NC(=O)c1ccc2ccccc2n1 [Saquinavir]		67 ± 1.2	63.5 ± 0.8	65.4 ± 1.2	84.6 ± 5.5		
COC(=O)N[C@H](C(=O)N1CC2(CC2)C[C@H]1c1nc(-c2ccc3c(c2)C(F)(F)c2cc(-c4ccc5[nH]c([C@@H]6[C@H]7CC[C@H](C7)N6C(=O)[C@@H](NC(=O)OC)C(C)C)nc5c4)ccc2-3)c[nH]1)C(C)C [Ledipasvir]					95.2 ± 2.9		viability at 20 µM (HCT116; HCT-116, read-out: HCT116 Cell Viability, remaining viability, 20 μM drug, normalized by blank control, three repeats): 82.9 ± 2.7%; viability at 20 µM (shCtrl/HCT116; HCT-116, read-out: shCtrl/HCT116 Cell Viability, remaining viability, 20 μM drug, C strain): 72.5 ± 0.8%; viability at 20 µM (shATG4B/HCT116; HCT-116, read-out: shATG4B/HCT116 Cell Viability): 90.2 ± 1.8%; difference of cell viability inhibition between shATG4B/HCT116 (S strain) and shCtrl/HCT116 (C strain) (shATG4B/HCT116): statistically significant; also recorded: significant differences
Cc1ccccc1-c1cc(N2CCN(C)CC2)ncc1N(C)C(=O)C(C)(C)c1cc(C(F)(F)F)cc(C(F)(F)F)c1 [Netupitant]	2.8 ± 0.4	3			43	statistically significant	AsPC-1 Cell Viability (AsPC-1): 42.9 ± 5.1%
Cc1cnc(C(=O)N[C@H]2CCCCC/C=C\[C@@H]3C[C@@]3(C(=O)NS(=O)(=O)C3CC3)NC(=O)[C@@H]3C[C@@H](Oc4nc5ccccc5c5ccccc45)CN3C2=O)cn1 [Paritaprevir]		85.8 ± 3.3	75.4 ± 1.3	88 ± 1.4	98.7 ± 3		difference of cell viability inhibition between shATG4B/HCT116 (S strain) and shCtrl/HCT116 (C strain) (shATG4B/HCT116): statistically significant; also recorded: significant differences
COC(=O)N[C@H](C(=O)N1CCC[C@H]1c1nc(-c2ccc(-c3ccc(-c4c[nH]c([C@@H]5CCCN5C(=O)[C@@H](NC(=O)OC)C(C)C)n4)cc3)cc2)c[nH]1)C(C)C [Daclatasvir]		62.7 ± 0.3	58.8 ± 2.6	69.4 ± 3.7	71.1 ± 4.2		
B1							cleavage of recombinant pro-LC3B (S-tag band on western blot) [1]: P: positive control, pro-LC3 mixed with ATG4B, and the cleavage by ATG4B resulting in the lighter band for S-tag; normalized S-tag band intensity (LICOR; divided by the negative control N) of lane P, no peptide, blot of the N7 series, ATG4B cleavage assay [1]: 0.3; normalized S-tag band intensity (divided by the negative control N) of lane P, no peptide, blot of the N18 series, ATG4B cleavage assay [1]: 0.3; normalized S-tag band intensity (image J; divided by the negative control N) of lane P, no peptide, blot of the N7 series, ATG4B cleavage assay [1]: 0.4
